In patent publication US20100099737A1, “COMPOSITIONS AND METHODS FOR TREATING MYELOSUPPRESSION” (priority 2006, published 2010):

What was measured:
Type in all cases: cell-based, human
phospho PKB (Ser 473) = experiment: Immunoblot of PKB / phospho PKB (Ser 473) in siRNA-transfected TF1 cells stimulated with GM-CSF; conditions: vs siNS, FIG. 1F
Excerpt: TF1 cells transfected with siSHIP ([…], SEQ ID NO: 11) or siNS were stimulated with the cytokine GM-CSF for the indicated length of time.

TF1 cells [1] = experiment: Survival of siRNA-transfected TF1 cells without growth factors, viable cells by trypan blue exclusion; conditions: absence of growth factors, counted daily by trypan blue exclusion, vs siNS, FIG. 1G
Procedure: (§1) TF1 cells transfected with siSHIP (triangles) or siNS (squares) were cultured in the absence of growth factors and the total number of viable cells counted daily by trypan blue exclusion (FIG. 1G), TF1 cells were cultured in the presence of increasing concentrations of the growth promoting cytokine IL-5, 2 days after siRNA transfection. Proliferation of siSHIP (diamonds) and control siNS (solid diamonds) transfected TF-1 cells was measured by [^3H]-thymidine incorporation (FIG. 1H).

TF1 cells [2] = experiment: Proliferation of siRNA-transfected TF1 cells with IL-5, [3H]-thymidine incorporation; conditions: sub-optimal levels of IL-5, 2 days after siRNA transfection, vs siNS, FIG. 1H
Procedure: as §1

[3] = test system: TF1 hemopoietic progenitor cell line; experiment: Resistance of siRNA-transfected TF1 cells to chemotherapy drugs, [3H]-thymidine incorporation; conditions: 4 days after transfection, cisplatin, doxorubicin and taxotere, complete growth media, read 2 days later, vs control siRNA, FIG. 2
Procedure: The TF1 hemopoietic progenitor cell line was transfected with SHIP1 siRNA or control siRNA as in FIG. 1. After 4 days, the cells were assessed at the indicated concentrations of cisplatin, doxorubicin and taxotere in the presence of complete growth media, [^3H]-thymidine incorporation was measured 2 days later.

Substance: siSHIP: siRNA to human SHIP1 mRNA (NM_001017915), position 2437, AAGAGTCAGGAAGGAGAAAAT (SEQ ID NO: 11) (listed as DNA, chemistry not given here)
- activation of the PIP3 dependent kinase PKB (phospho PKB Ser 473) (phospho PKB (Ser 473)): enhanced the activation
- survival (total number of viable cells) (TF1 cells [1]): considerably increased survival
- proliferation ([3H]-thymidine incorporation) (TF1 cells [2]): considerably increased
- resistance to chemotherapy drugs ([3H]-thymidine incorporation) [3]: significantly more resistant
